Results: US20040220411A1, “Oxalic acid derivatives” (priority 2001, published 2004)

What follows are molecules tested against factor Xa (Homo sapiens, UniProt P00742) (assay: Inhibition of factor Xa). Settings: Affinity to receptors.
Type: biochemical
Excerpt: The inhibition of factor Xa by the compounds according to the invention and the measurement of the anticoagulant and antithrombotic activity can be determined by conventional in-vitro or in-vivo methods. A suitable method is described, for example, by J. Hauptmann et al. in Thrombosis and Haemostasis 1990, 63, 220-223.
The inhibition of factor Xa can be measured, for example by the method of T. Hara et al. in Thromb. Haemostas. 1994, 71, 314-319.

Chain of factor Xa (P00742 235-488 limits assumed): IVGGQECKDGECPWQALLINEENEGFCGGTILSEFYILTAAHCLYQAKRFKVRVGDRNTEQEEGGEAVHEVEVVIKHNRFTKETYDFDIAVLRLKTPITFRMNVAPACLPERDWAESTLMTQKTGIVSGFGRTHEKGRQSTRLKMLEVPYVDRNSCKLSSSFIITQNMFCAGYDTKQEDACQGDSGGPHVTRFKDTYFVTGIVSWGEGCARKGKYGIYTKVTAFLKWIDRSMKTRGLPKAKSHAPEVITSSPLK
Chain of factor Xa (P00742 41-179 partner limits assumed): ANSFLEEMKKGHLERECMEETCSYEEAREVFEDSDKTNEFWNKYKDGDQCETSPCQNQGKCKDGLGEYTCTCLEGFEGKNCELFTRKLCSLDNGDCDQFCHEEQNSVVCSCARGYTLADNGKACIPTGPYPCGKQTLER

IC50	SMILES
0.01 µM	CC(C)CN(Cc1cccc(C(=N)N)c1)C(=O)C(=O)Nc1ccc(-c2ccccc2S(N)(=O)=O)cc1 [Example 1, N-(3-amidinobenzyl)-N-isobutyl-N′-(2′-sulfamoylbiphenyl-4-yl)oxalamide]
0.3 µM	CC(C)CN(Cc1cccc(C(=N)N)c1)C(=O)C(=O)Nc1ccc(-c2ccccc2S(=O)(=O)NC(C)(C)C)cc1 [Example 1g, N-(2′-tert-butylsulfamoylbiphenyl-4-yl)-N′-(3-amidinobenzyl)-N′-isobutyloxalamide]
0.0096 µM	CC(C)CN(Cc1cccc(C(=N)N)c1)C(=O)C(=O)Nc1ccc(-c2ccccc2S(C)(=O)=O)cc1 [Example 3, N-(3-amidinobenzyl)-N-isobutyl-N′-(2′-methanesulfonylbiphenyl-4-yl)oxalamide]
3.5 µM	COC(=O)NC(=N)c1cccc(CN(CC(C)C)C(=O)C(=O)Nc2ccc(-c3ccccc3S(C)(=O)=O)cc2)c1 [Example 4, Methyl [imino-(3-{[isobutyl-(2′-methanesulfonylbiphenyl-4-ylaminooxalyl)amino]methyl}phenyl)methyl]carbamate]
1 µM	CC(C)CN(Cc1cccc(C(=N)N)c1)C(=O)C(=O)Nc1ccc(-c2ccc(C(=N)N)cc2)cc1 [Example 5, N-(3-amidinobenzyl)-N′-(4′-amidinobiphenyl-4-yl)-N-isobutyloxalamide]
1.5 µM	CC(C)CN(Cc1cccc(C(=N)N)c1)C(=O)C(=O)Nc1ccc(-c2ccc(CN)cc2)cc1 [Example 6, N-(4′-Aminomethylbiphenyl-4-yl)-N′-(3-amidinobenzyl)-N′-isobutyloxalamide]
6 µM	CC(C)CN(Cc1cccc(C(=O)O)c1)C(=O)C(=O)Nc1ccc(-c2ccccc2S(N)(=O)=O)cc1 [Example 7, 3-{[Isobutyl-(2′-sulfamoylbiphenyl-4-ylaminooxalyl)amino]methyl}benzoic acid]
